According to patent publication US6911542B2, “Pyrazino[1′,2′:1,6]pyrido[3,4b]indole derivatives” (Lilly Icos LLC., priority 2000, dated 2005):

Molecular target: T1, human recombinant PDE5 (Homo sapiens, UniProt O76074)
T1 construct: host or cells: Saccharomyces cerevisiae, protease-deficient strain BJ2-54 (ATCC 74465)
Test: cGMP-PDE one-step inhibition assay, human recombinant PDE5
Type: biochemical
Conditions: 0.15 μM 8-[H3]-cGMP, 30 min incubation
Experimental: The compounds of structural formula (I) were tested for an ability to inhibit PDE5. The ability of a compound to inhibit PDE5 activity is related to the IC50 value for the compound, i.e., the concentration of inhibitor required for 50% inhibition of enzyme activity. The IC50 value for compounds of structural formula (I) were determined using recombinant human PDE5.
The production of recombinant human PDEs and the IC50 determinations can be accomplished by well-known methods in the art. Exemplary methods are described as follows:
Recombinant production of human PDE1B, PDE2, PDE4A, PDE4B, PDE4C, PDE4D, PDE5, and PDE7 was carried out similarly to that described in Example 7 of U.S. Pat. No. 5,702,936, incorporated herein by reference, except that the yeast transformation vector employed, which is derived from the basic ADH2 plasmid described in Price et al., Methods in Enzymology, 185, pp. 308-318 (1990), incorporated yeast ADH2 promoter and terminator sequences and the Saccharomyces cerevisiae host was the protease-deficient strain BJ2-54 deposited on Aug. 31, 1998 with the American Type Culture Collection, Manassas, Va., under accession number ATCC 74465. Transformed host cells were grown in 2×SC-leu medium, pH 6.2, with trace metals, and vitamins. After 24 hours, YEP medium-containing glycerol was added to a final concentration of 2×YET/3% glycerol. Approximately 24 hr later, cells were harvested, washed, and stored at −70° C. […]
Cell pellets (29 g) were thawed on ice with an equal volume of Lysis Buffer (25 mM Tris HCl, pH 8, 5 mM MgCl2, 0.25 mM DTT, 1 mM benzamidine, and 10 μM ZnSO4). Cells were lysed in a Microfluidizer® (Microfluidics Corp.) using nitrogen at 20,000 psi. The lysate was centrifuged and filtered through 0.45 μm disposable filters. The filtrate was applied to a 150 mL column of Q SEPHAROSE® Fast-Flow (Pharmacia). The column was washed with 1.5 volumes of Buffer A (20 mM Bis-Tris Propane, pH 6.8, 1 mM MgCl2, 0.25 mM DTT, 10 μM ZnSO4) and eluted with a step gradient of 125 mM NaCl in Buffer A followed by a linear gradient of 125-1000 mM NaCl in Buffer A. Active fractions from the linear gradient were applied to a 180 mL hydroxyapatite column in Buffer B (20 mM Bis-Tris Propane (pH 6.8), 1 mM MgCl2, 0.25 mM DTT, 10 μM ZnSO4, and 250 mM KCl). After loading, the column was washed with 2 volumes of Buffer B and eluted with a linear gradient of 0-125 mM potassium phosphate in Buffer B. Active fractions were pooled, precipitated with 60% ammonium sulfate, and resuspended in Buffer C (20 mM Bis-Tris Propane, pH 6.8, 125 mM NaCl, 0.5 mM DTT, and 10 μM ZnSO4). The pool was applied to a 140 mL column of […]® S-300 HR and eluted with Buffer C. Active fractions were diluted to 50% glycerol and stored at −20° C.
cGMP-PDE activity of compounds of the present invention was measured using a one-step assay adapted from Wells et al., Biochim. Biophys. Acta, 384, 430 (1975). The reaction medium contained 50 mM Tris-HCl, pH 7.5, 5 mM magnesium acetate, 250 μg/ml 5′-Nucleotidase, 1 mM EGTA, and 0.15 μM 8-[H^3]-cGMP. Unless otherwise indicated, the enzyme used was a human recombinant PDE5 (ICOS Corp., Bothell, Wash.).
Compounds of the invention were dissolved in DMSO finally present at 2% in the assay.

IC50 [nM]	SMILES
70	CC(C)(C)OC(=O)CN1CC(=O)N2[C@H](c3ccc4c(c3)OCO4)c3[nH]c4ccccc4c3C[C@@H]2C1=O [Example 86]
140	O=C(CN1CC(=O)N2[C@H](c3ccc4c(c3)OCO4)c3[nH]c4ccccc4c3C[C@@H]2C1=O)N1CCN(c2ccccc2)CC1 [Example 42]
4.3	O=C(CCCN1CC(=O)N2[C@H](c3ccc4c(c3)OCO4)c3[nH]c4ccccc4c3C[C@@H]2C1=O)NC1CCCCC1 [Example 35]
20	COC(=O)c1ccc(CN2CC(=O)N3[C@H](c4ccc5c(c4)OCO5)c4[nH]c5ccccc5c4C[C@@H]3C2=O)cc1 [Example 62]
40	CNc1cc(CN2CC(=O)N3[C@H](c4ccc5c(c4)OCO5)c4[nH]c5ccccc5c4C[C@@H]3C2=O)cc([N+](=O)[O-])c1 [Example 83]
10	O=C1[C@H]2Cc3c([nH]c4ccccc34)[C@@H](c3ccc4c(c3)OCO4)N2C(=O)CN1CCOCCO [Example 40]
6.3	O=C1[C@H]2Cc3c([nH]c4ccccc34)[C@@H](c3ccc4c(c3)OCO4)N2C(=O)CN1CCCn1cccn1 [Example 79]
1.7	O=C1[C@H]2Cc3c([nH]c4ccccc34)[C@@H](c3ccc4c(c3)OCO4)N2C(=O)CN1Cc1cccc(NS(=O)(=O)C(F)(F)F)c1 [Example 77]
30	O=C1C2Cc3c([nH]c4ccccc34)C(c3ccc4c(c3)OCO4)N2C(=O)CN1CCn1cncn1 (stereo not drawn) [Example 82]
120	CN1CCN(NC(=O)CN2CC(=O)N3[C@H](c4ccc5c(c4)OCO5)c4[nH]c5ccccc5c4C[C@@H]3C2=O)CC1 [Example 84]
10	COCCCN1CC(=O)N2[C@H](c3ccc4c(c3)OCO4)c3[nH]c4ccccc4c3C[C@@H]2C1=O [Example 25]
10	CCCCN(C)C(=O)CCCN1CC(=O)N2[C@H](c3ccc4c(c3)OCO4)c3[nH]c4ccccc4c3C[C@@H]2C1=O [Example 34]
100	CN(C(=O)CN1CC(=O)N2[C@H](c3ccc4c(c3)OCO4)c3[nH]c4ccccc4c3C[C@@H]2C1=O)c1ccccc1 [Example 43]
2.3	O=C(O)CCN1CC(=O)N2[C@H](c3ccc4c(c3)OCO4)c3[nH]c4ccccc4c3C[C@@H]2C1=O [Example 72]
20	Cn1cnc2cc(CN3CC(=O)N4[C@H](c5ccc6c(c5)OCO6)c5[nH]c6ccccc6c5C[C@@H]4C3=O)ccc21 [Example 85]
5.1	O=C1[C@H]2Cc3c([nH]c4ccccc34)[C@@H](c3ccc4c(c3)OCO4)N2C(=O)CN1Cc1ccc(NS(=O)(=O)C(F)(F)F)cc1 [Example 57]
3.9	O=C(CN1CC(=O)N2[C@H](c3ccc4c(c3)OCO4)c3[nH]c4ccccc4c3C[C@@H]2C1=O)Nc1ccccc1 [Example 28]
1.8	NN1CC(=O)N2[C@H](c3ccc4c(c3)OCO4)c3[nH]c4ccccc4c3C[C@@H]2C1=O [Example 4, (6R,12aR)-2-Amino-6-benzo[1,3]dioxo-5-yl-2,3,6,7,12,12a-hexahydropyrazino[1′, 2′:1,6]-pyrido[3,4-b]indole-1,4-dione]
20	O=C(CN1CC(=O)N2[C@H](c3ccc4c(c3)OCO4)c3[nH]c4ccccc4c3C[C@@H]2C1=O)NCc1ccccc1 [Example 30]
290	CN(C)CCOc1ccc(CN2CC(=O)N3[C@H](c4ccc5c(c4)OCO5)c4[nH]c5ccccc5c4C[C@@H]3C2=O)cc1 [Example 81]
70	N#Cc1ccc(CN2CC(=O)N3[C@H](c4ccc5c(c4)OCO5)c4[nH]c5ccccc5c4C[C@@H]3C2=O)cc1 [Example 59]
20	NS(=O)(=O)c1ccc(CN2CC(=O)N3[C@H](c4ccc5c(c4)OCO5)c4[nH]c5ccccc5c4C[C@@H]3C2=O)cc1 [Example 58]

IC50 [nM]	SMILES
40	O=C(CN1CC(=O)N2[C@H](c3ccc4c(c3)OCO4)c3[nH]c4ccccc4c3C[C@@H]2C1=O)OCc1ccccc1 [Example 68]
9.6	CCOC(=O)CCN1CC(=O)N2[C@H](c3ccc4c(c3)OCO4)c3[nH]c4ccccc4c3C[C@@H]2C1=O [Example 24]
6.2	NS(=O)(=O)c1ccc(CCN2CC(=O)N3[C@H](c4ccc5c(c4)OCO5)c4[nH]c5ccccc5c4C[C@@H]3C2=O)cc1 [Example 67]
10	CC(=O)NCCN1CC(=O)N2[C@H](c3ccc4c(c3)OCO4)c3[nH]c4ccccc4c3C[C@@H]2C1=O [Example 26]
50	O=C(O)CCN1CC(=O)N2[C@H](c3ccc4c(c3)OCO4)c3[nH]c4ccccc4c3C[C@@H]2C1=O [Example 36]
20	O=C(O)CN1CC(=O)N2[C@H](c3ccc4c(c3)OCO4)c3[nH]c4ccccc4c3C[C@@H]2C1=O [Example 69]
10	N#CCN1CC(=O)N2[C@H](c3ccc4c(c3)OCO4)c3[nH]c4ccccc4c3C[C@@H]2C1=O [Example 60]
130	CC1C(=O)N2[C@H](c3ccc4c(c3)OCO4)c3[nH]c4ccccc4c3C[C@@H]2C(=O)N1CCN(C)C (stereo partly drawn) [Example 8]
20	COC(=O)CN1CC(=O)N2[C@H](c3ccc4c(c3)OCO4)c3[nH]c4ccccc4c3C[C@@H]2C1=O [Example 87]
2.5	CON1CC(=O)N2[C@H](c3ccc4c(c3)OCO4)c3[nH]c4ccccc4c3C[C@@H]2C1=O [Example 3, (6R,12aR)-6-Benzo[1,3]dioxol-5-yl-2-methoxy-2,3,6,7,12,12a-hexahydropyrazino[1′,2′:1,6]-pyrido[3,4-b]indole-1,4-dione]
10	CC(C)(C)OC(=O)CCN1CC(=O)N2[C@H](c3ccc4c(c3)OCO4)c3[nH]c4ccccc4c3C[C@@H]2C1=O [Example 71]
40	Nc1ccc(CCN2CC(=O)N3[C@H](c4ccc5c(c4)OCO5)c4[nH]c5ccccc5c4C[C@@H]3C2=O)cc1 [Example 66]
110	CCCCCCCCOC(=O)CN1CC(=O)N2[C@H](c3ccc4c(c3)OCO4)c3[nH]c4ccccc4c3C[C@@H]2C1=O [Example 88]
10	O=C(CCN1CC(=O)N2[C@H](c3ccc4c(c3)OCO4)c3[nH]c4ccccc4c3C[C@@H]2C1=O)NC1CCCCC1 [Example 33]
5.9	COCCN1CC(=O)N2[C@H](c3ccc4c(c3)OCO4)c3[nH]c4ccccc4c3C[C@@H]2C1=O [Example 29]
1.4	NS(=O)(=O)c1ccc(CCN2CC(=O)N3[C@H](c4ccc5c(c4)OCO5)c4[nH]c5ccccc5c4C[C@@H]3C2=O)cc1 [Example 1, (6R-trans)-6-(1,3-Benzodioxol-5-yl)-2,3,6,7,12,12a-hexahydro-2-[2-(4-phenylsulfamoyl)-ethyl]pyrazino[1′,2′:1,6]pyrido[3,4-b]indole-1,4-dione]
3.9	O=C(CN1CC(=O)N2[C@H](c3ccc4c(c3)OCO4)c3[nH]c4ccccc4c3C[C@@H]2C1=O)Nc1ccncc1 [Example 38]
10	O=C1[C@H]2Cc3c([nH]c4ccccc34)[C@@H](c3ccc4c(c3)OCO4)N2C(=O)CN1CCCn1ccnc1 [Example 32]
50	CN1CCN(CCN2CC(=O)N3[C@H](c4ccc5c(c4)OCO5)c4[nH]c5ccccc5c4C[C@@H]3C2=O)CC1 [Example 46]
30	CCOCCCN1CC(=O)N2[C@H](c3ccc4c(c3)OCO4)c3[nH]c4ccccc4c3C[C@@H]2C1=O [Example 39]
40	O=C1[C@H]2Cc3c([nH]c4ccccc34)[C@@H](c3ccc4c(c3)OCO4)N2C(=O)CN1CCCN1CCOCC1 [Example 18]
20	O=C1[C@H]2Cc3c([nH]c4ccccc34)[C@@H](c3ccc4c(c3)OCO4)N2C(=O)CN1CCc1cnc[nH]1 [Example 64]

SMILES	IC50 [nM]
O=C(CN1CC(=O)N2[C@H](c3ccc4c(c3)OCO4)c3[nH]c4ccccc4c3C[C@@H]2C1=O)N1CCCCC1 [Example 31]	20
